The text below walks through data of the NIST ThermoML archive (doi:10.1016/j.fluid.2009.08.016).

Numbers after ± are expanded uncertainties.

The conditions of data set [1]: Crystal; DTA.
A short description of data set [2]: Molar enthalpy of transition or fusion. The following applies: Crystal; DSC.

As for `CC(C)CCC[C@@H](C)[C@H]1CC[C@H]2[C@@H]3CC=C4C[C@@H](O)CC[C@]4(C)[C@H]3CC[C@]12C` [.DELTA.5-cholesten-3β-ol], the Normal melting temperature in data set [1] was 148.6 ± 0.5 °C. Further, the “Molar enthalpy of transition or fusion” value in data set [2] amounted to 6.81 ± 0.191 kcal/mol.
